Test results as given in patent US20260250318A1, “COMPOSITIONS AND METHODS FOR CROSSING THE BLOOD BRAIN BARRIER” (VOYAGER THERAPEUTICS, INC., priority 2022, published 2026).

System: brains, heart, liver, muscle, and DRG of the NHPs
Assay: Maturation of TTM-001 and TTM-002 capsids, NGS enrichment in NHP tissues
Format: in vivo
Text: This Example describes maturation of the AAV9 capsid variants, TTM-001 (SEQ ID NO: 981 (amino acid) and 983 (DNA), comprising SEQ ID NO: 941 (encoded by SEQ ID NO: 942)) and TTM-002 (SEQ ID NO: 982 (amino acid) and 984 (DNA), comprising SEQ ID NO: […] (encoded by SEQ ID NO: 944)) in NHPs to further enhance their transduction and biodistribution in the central nervous system as well as other tissues, and evolve the AAV capsid variants to provide further cross-species compatibility. Two approaches were used to mature the TTM-001 and TTM-002 capsid sequences in order to randomize and mutate within and around the peptide insert comprised within loop IV of the capsid variant. […] In the first maturation approach, sets of three contiguous amino acids were randomized across the mutagenesis region in the TTM-001 and TTM-002 sequences, which spanned from position 450 to position 466, numbered according to SEQ ID NO: 981 and 982. In the second maturation approach, mutagenic primers were used to introduce point mutations at a low frequency, scattered across the mutagenesis region in the TTM-001 and TTM-002 sequences ranging from position 449 to position 466, numbered according to SEQ ID NO: 981 and 982. AAV capsid variants arising from each maturation approach for TTM-001 and TTM-002 were pooled together, for subsequent testing and characterization in NHPs.
The library of pooled matured AAV capsid variants generated using the first maturation approach and the second maturation approach for the TTM-001 and TTM-002 AAV capsid variants were injected into two NHPs. […] Following RNA recovery and RT-PCR amplification, a systematic NGS enrichment analysis was performed to calculate the fold enrichment ratio relative to an AAV9 control, and the peptides comprised within the variants were identified.
Following the RNA recovery and NGS analysis from the second maturation approach, approximately 680,000 capsid variants were identified. The 680,000 matured capsid variants were then filtered based on samples with a raw virus count greater than 10 and a coefficient of variance (CV) of less than 1, which was calculated for each peptide across the brain samples taken from the two NHPs. […] Using this filtering criteria, this led to approximately 64,000 matured capsid variants.

[1] = NHP DRG, NGS, relative to AAV9 control
[2] = NHP brain, NGS, relative to AAV9 control
[3] = NHP heart, NGS, relative to AAV9 control
[4] = NHP liver DNA, NGS, relative to AAV9 control
[5] = NHP liver RNA, NGS, TTM-001 and TTM-002 matured AAV capsid variants, relative to AAV9 control
[6] = NHP muscle, NGS, relative to AAV9 control
[7] = NGS fold-enrichment, DRG, NHP, relative to AAV9
[8] = NGS fold-enrichment, brain, NHP, relative to AAV9
[9] = NGS fold-enrichment, heart, NHP, relative to AAV9
[10] = NGS fold-enrichment, liver DNA, NHP, relative to AAV9
[11] = NGS fold-enrichment, liver RNA, NHP, relative to AAV9
[12] = NGS fold-enrichment, muscle, NHP, relative to AAV9

| Sequence | Fold Enrichment relative to AAV9, DRG (NHP) [1] | Fold Enrichment relative to AAV9, Brain (NHP) [2] | Fold Enrichment relative to AAV9, Heart (NHP) [3] | Fold Enrichment relative to AAV9, Liver DNA (NHP) [4] | Fold Enrichment relative to AAV9, Liver RNA (NHP) [5] | Fold Enrichment relative to AAV9, Muscle (NHP) [6] | Fold Enrichment relative to AAV9, DRG (NHP) [7] | Fold Enrichment relative to AAV9, Brain (NHP) [8] | Fold Enrichment relative to AAV9, Heart (NHP) [9] | Fold Enrichment relative to AAV9, Liver DNA (NHP) [10] | Fold Enrichment relative to AAV9, Liver RNA (NHP) [11] | Fold Enrichment relative to AAV9, Muscle (NHP) [12] |
| --- | --- | --- | --- | --- | --- | --- | --- | --- | --- | --- | --- | --- |
| KTINGSVSPHCTAQNQQT (peptide inserted in AAV capsid) | 0.000 fold | 0.000 fold | 0.000 fold | 2.955 fold | 13.502 fold | 0.000 fold | – | – | – | – | – | – |
| KTINGSGSPHSKALRCQT | 0.000 fold | 0.000 fold | 0.000 fold | 1.892 fold | 17.283 fold | 0.000 fold | – | – | – | – | – | – |
| KTKLCSGSPHSKAQNQQT | 0.000 fold | 0.000 fold | 0.000 fold | 2.139 fold | 12.570 fold | 0.000 fold | – | – | – | – | – | – |
| KTINGSGSPHSCSRNQQT | 0.000 fold | 0.000 fold | 0.000 fold | 4.293 fold | 40.372 fold | 0.000 fold | – | – | – | – | – | – |
| KTINGSGSPHSKAQNFKR | 0.000 fold | 0.000 fold | 0.000 fold | 0.964 fold | 32.291 fold | 0.000 fold | – | – | – | – | – | – |
| KTTRCSGSPHSKAQNQQT | 0.000 fold | 0.000 fold | 0.000 fold | 8.168 fold | 12.639 fold | 0.000 fold | – | – | – | – | – | – |
| KTRRPSGSPHSKAQNQQT | 0.000 fold | 0.000 fold | 0.000 fold | 2.384 fold | 42.374 fold | 0.000 fold | – | – | – | – | – | – |
| KTINGSGSPHSTCLNQQT | 0.000 fold | 0.000 fold | 0.000 fold | 4.762 fold | 11.132 fold | 0.000 fold | – | – | – | – | – | – |
| KTRTRSGSPHSKAQNQQT | 0.000 fold | 0.000 fold | 0.000 fold | 6.894 fold | 25.852 fold | 0.000 fold | – | – | – | – | – | – |
| KTINGSGSPHLPTQNQQT | 0.000 fold | 0.000 fold | 0.000 fold | 3.127 fold | 20.704 fold | 0.000 fold | – | – | – | – | – | – |
| KTINGSGSPHSKNSRQQT | 0.000 fold | 0.000 fold | 0.000 fold | 1.093 fold | 11.280 fold | 0.000 fold | – | – | – | – | – | – |
| KTINGSGSPHSKFFIQQT | 0.000 fold | 0.000 fold | 0.000 fold | 6.916 fold | 63.255 fold | 0.000 fold | – | – | – | – | – | – |
| KTINGSGSPHSLYQNQQT | 0.000 fold | 0.000 fold | 0.000 fold | 1.503 fold | 11.590 fold | 0.000 fold | – | – | – | – | – | – |
| KTINGSGSPHSFTPNQQT | 0.000 fold | 0.000 fold | 0.000 fold | 1.036 fold | 24.227 fold | 0.000 fold | – | – | – | – | – | – |
| KTINGSGSPHKSGQNPQT | – | – | – | – | – | – | 0.000 fold | 0.000 fold | 0.000 fold | 11.790 fold | 11.014 fold | 0.000 fold |
| KTTRKSGSPHSKAQNQQT | 0.000 fold | 0.000 fold | 0.000 fold | 2.617 fold | 18.849 fold | 0.000 fold | – | – | – | – | – | – |
| KTINGSYSPHCLAQNQQT (peptide inserted in AAV capsid) | 0.000 fold | 0.000 fold | 0.000 fold | 0.309 fold | 62.942 fold | 0.000 fold | – | – | – | – | – | – |
| KTINGSGSPHSYTRNQQT | 0.000 fold | 0.000 fold | 0.000 fold | 1.986 fold | 14.535 fold | 0.000 fold | – | – | – | – | – | – |
| KTINGSGSPHSKACQFQT | 0.000 fold | 0.000 fold | 0.000 fold | 8.562 fold | 17.640 fold | 9.605 fold | – | – | – | – | – | – |
| KTINGSGSPHFPFQNQQT | – | – | – | – | – | – | 0.000 fold | 0.000 fold | 0.000 fold | 3.715 fold | 10.322 fold | 0.000 fold |
